Measured values reported in patent US20050233970A1, “Methods for treating long QT syndrome” (priority 2004, published 2005).
Read-outs that look alike come from different tables or passages of the source. Square brackets hold non-standard residues; d marks the D form. Peptide text beside a SMILES is read from it. dPhe(4-Cl) = N[C@H](Cc1ccc(Cl)cc1)C(=O)O; d2Nal = N[C@H](Cc1ccc2ccccc2c1)C(=O)O; Lys(iPr) = CC(C)NCCCC[C@H](N)C(=O)O; NMeY = CN[C@@H](Cc1ccc(O)cc1)C(=O)O; d3Pal = N[C@H](Cc1cccnc1)C(=O)O

Assays:
testosterone [1] = assay: Studies II and III: plasma testosterone (radioimmunoassay) on ECG study days; type: in vivo, human
Experimental: QTcB and QTcF were calculated utilizing standard formulas.^(F)
Laboratory analysis of testosterone and dihydrotestosterone were determined using certified central laboratories and standard radioimmunoessay methods.

QT interval [2] = settings: human, in vivo
Experimental: Abarelix was given as a dose of 100 mg IM on days 1, 15, 29 and every 28 days thereafter for 48 weeks. Prospectively, a standard 12-lead ECG was performed at baseline and on days 85 and 337. Plasma testosterone samples were obtained at the same time. All ECG's were analyzed in a blinded fashion to treatment allocation. Each ECG was analyzed in comparison to its respective baseline for heart rate, QRS duration, PR interval, QT interval, and QTc. Concomitant medicines and prior medical history was recorded on all patients. Patients with a baseline QT of >450 msec were to be excluded from the study. If a patient experienced a QTcB of ≧500 msec while on study, therapy was to be discontinued. […] They are the focus of this report.

testosterone [3] = assay: Study I: plasma testosterone (radioimmunoassay) on ECG study days; type: in vivo, human
Experimental: Abarelix was given as a dose of 100 mg IM on days 1, 15, 29 and every 28 days thereafter for 48 weeks. […] Plasma testosterone samples were obtained at the same time. All ECG's were analyzed in a blinded fashion to treatment allocation. Each ECG was analyzed in comparison to its respective baseline for heart rate, QRS duration, PR interval, QT interval, and QTc. Concomitant medicines and prior medical history was recorded on all patients. […] If a patient experienced a QTcB of ≧500 msec while on study, therapy was to be discontinued. Laboratory analysis of testosterone and dihydrotestosterone were determined using certified central laboratories and standard radioimmunoessay methods.

QT interval [4] = settings: human, in vivo; remark: listed apart in the source
Experimental: Studies II and III required an ECG at baseline and on day 169 and, if the patient continued, on day 365. […] The ECG machine-calculated heart rate and QT interval were entered into a database. QTcB and QTcF were calculated utilizing standard formulas.^(F)
QTc evaluations included measurement of baseline, post baseline, on-therapy and change from baseline in QTcB and QTcF in each treatment group.
ECG measurement of QTcB and QTcF were calculated based on standard QT and heart rate measurements. T-tests were used to evaluate intra as well as inter-treatment change from baseline for each treatment group. Comparisons between treatment groups were performed in a pair wise manner.

## CC(=O)N[C@H](Cc1ccc2ccccc2c1)C(=O)N[C@H](Cc1ccc(Cl)cc1)C(=O)N[C@H](Cc1cccnc1)C(=O)N[C@@H](CO)C(=O)N(C)[C@@H](Cc1ccc(O)cc1)C(=O)N[C@H](CC(N)=O)C(=O)N[C@@H](CC(C)C)C(=O)N[C@@H](CCCCNC(C)C)C(=O)N1CCC[C@H]1C(=O)N[C@H](C)C(N)=O [Abarelix, abarelix] (Ac-[d2Nal][dPhe(4-Cl)][d3Pal]S[NMeY][dN]L[Lys(iPr)]P[dA]-NH2)
Testosterone [1]; Baseline
  Testosterone Levels, Median: 361 ng/dL
Testosterone [1]; Day 169
  Testosterone Levels, Median: 14 ng/dL
QT interval [2]
  QTcB Baseline: 413.5 (26.8) msec
  QTcB On Therapy: 426.8 (22.9) msec
  QTcF Baseline: 404.6 (23.5) msec
  QTcF Change from Baseline: 12.0 (16.2) msec
  QTcF On Therapy: 419.5 (21.3) msec
Testosterone [3]; Baseline
  Testosterone Levels, Median: 316 ng/dL
Testosterone [3]; Day 85
  Testosterone Levels, Median: 23 ng/dL
Testosterone [3]; Day 337
  Testosterone Levels, Median: 35 ng/dL
QT interval [4]
  QTcB Baseline: 417.9 (28.6) msec
  QTcB On Therapy: 431.7 (29.8) msec
  QTcF Baseline: 410.6 (28.1) msec
  QTcF On Therapy: 423.4 (28.0) msec

## CCNC(=O)[C@@H]1CCCN1C(=O)[C@H](CCCNC(=N)N)NC(=O)[C@H](CC(C)C)NC(=O)[C@@H](CC(C)C)NC(=O)[C@H](Cc1ccc(O)cc1)NC(=O)[C@H](CO)NC(=O)[C@H](Cc1c[nH]c2ccccc12)NC(=O)[C@H](Cc1c[nH]cn1)NC(=O)[C@@H]1CCC(=O)N1 [Leuprolide, leuprolide]
Testosterone [1]; Baseline
  Testosterone Levels, Median: 342 ng/dL
Testosterone [1]; Day 169
  Testosterone Levels, Median: 9 ng/dL
QT interval [4]
  QTcB Baseline: 421.6 (29.4) msec
  QTcB On Therapy: 441.6 (25.8) msec
  QTcF Baseline: 414.5 (26.0) msec
  QTcF On Therapy: 432.1 (23.6) msec
